# Test results published in patent publication US9399644B2, “[1,3] dioxolo [4,5-G] quinoline-6(5H)thione derivatives as inhibitors of the late SV40 factor (LSF) for use in treating cancer” (TRUSTEES OF BOSTON UNIVERSITY, priority 2011, dated 2016).
# How the values were obtained:
# LSF = target: T1, LSF (Homo sapiens, UniProt Q12800); assay: LSF-dependent reporter assay (dual luciferase); assay type: cell-based; conditions: for LSF inhibition (result in words): NIH 3T3 cells transfected with LSF expression vector and LSF-driven firefly luciferase reporter, FIGS. 5-7
# T1 construct: expressed in transfected cells; host or cells: NIH 3T3 cells
# T1 sequence (Q12800 1-502): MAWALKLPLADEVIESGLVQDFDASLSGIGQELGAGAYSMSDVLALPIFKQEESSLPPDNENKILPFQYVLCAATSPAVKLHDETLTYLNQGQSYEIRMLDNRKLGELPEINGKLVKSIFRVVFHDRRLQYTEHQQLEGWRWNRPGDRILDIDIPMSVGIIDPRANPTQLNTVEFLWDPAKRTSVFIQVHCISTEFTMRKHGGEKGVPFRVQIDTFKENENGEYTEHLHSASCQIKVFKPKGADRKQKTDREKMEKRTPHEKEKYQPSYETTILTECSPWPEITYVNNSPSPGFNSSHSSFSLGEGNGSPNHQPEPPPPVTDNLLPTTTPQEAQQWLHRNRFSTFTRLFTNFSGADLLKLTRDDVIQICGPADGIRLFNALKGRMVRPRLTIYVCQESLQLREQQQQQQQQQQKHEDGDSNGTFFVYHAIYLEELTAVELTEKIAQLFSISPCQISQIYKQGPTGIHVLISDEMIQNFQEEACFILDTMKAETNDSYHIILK
# Description: NIH 3T3 cells were transfected with the expression construct pEF1α-LSF, an LSF expression vector^1,2; the reporter construct pGL3B-WT4E1b, a firefly luciferase reporter vector driven by LSF^3; phRL-TK, a control renilla luciferase reporter vector; and pEFGP, essentially as previously described^3. Five hours after transfection, either vehicle (DMSO) or compounds (VI, I and II, IV and V) were added (FIG. 7, FIG. 5 and FIG. 6, respectively), keeping DMSO at 0.5%. Cell extracts were harvested 36 hours post-transfection and firefly and renilla luciferase activities measured via a dual luciferase assay (Promega). Five μl of extract was mixed with 30 μl of luciferase assay reagent (Promega), and luminescence measured for 10 seconds using a 20/20n luminometer (Turner Biosystems). Subsequently, 30 μl of Stop & Glo reagent (Promega) was added, and luminescence also measured for 10 seconds. LSF transactivation activity is given as relative luciferase activity, the ratio of firefly to renilla activities, and normalized to the relative luciferase activity in the presence of vehicle alone. Data for this assay are shown in graphically in FIGS. 5-7.
# [1] = test system: hepatocellular carcinoma (HCC); conditions: single treatment; cited from earlier work
Structure (SMILES),LSF inhibition (result in words) (LSF),also measured
"CCOc1ccccc1C1CC(=S)Nc2cc3c(cc21)OCO3 (racemic) [racemic mixture of compounds I and II, 8-(2-ethoxyphenyl)-7,8-dihydro-[1,3]dioxolo[4,5-g]quinoline-6(5H)-thione]",particularly strong LSF inhibitors,effectiveness as LSF inhibitor compared with the racemic mixture of compounds IV and V (FIG. 6) and Compound VI (FIG. 7) (LSF; FIG. 5 versus FIG. 6 and FIG. 7): about 10 times; rank among LSF inhibitors observed by the applicants (LSF; experiments thus far performed by the applicants): strongest LSF inhibitor so far observed
"CCOc1ccccc1-c1cc(=S)[nH]c2cc3c(cc12)OCO3 [Compound III, 8-(2-ethoxyphenyl)-[1,3]dioxolo[4,5-g]quinolin-6(5H)-thione]",exhibit properties as LSF inhibitors,–
CCOc1ccccc1[C@H]1CC(=S)Nc2cc3c(cc21)OCO3 [Compound II],exhibit properties as LSF inhibitors,–
CCOc1ccccc1[C@@H]1CC(=S)Nc2cc3c(cc21)OCO3 [Compound I],exhibit properties as LSF inhibitors,–
CCOc1ccccc1[C@H]1Cc2nncn2-c2cc3c(cc21)OCO3 [Compound V],exhibit properties as LSF inhibitors,–
CCOc1ccccc1[C@@H]1Cc2nncn2-c2cc3c(cc21)OCO3 [IV],exhibit properties as LSF inhibitors,–
CNC(=O)c1cc(Oc2ccc(NC(=O)Nc3ccc(Cl)c(C(F)(F)F)c3)cc2)ccn1 [sorafenib],–,increase of survival [1]: 2-3 months
